Experimental data taken from the kinase profiling compilation of Christmann-Franck et al. (2016).

How the values were obtained:
Test in all cases: KINOMEscan competition binding
Conditions in all cases: compound 10.0 µM
[1] = biological target: RPS6KA2 KD2 (human) (UniProt Q15349)
[2] = biological target: ERBB2 (human) (UniProt P04626)
[3] = biological target: EPHA2 (human) (UniProt P29317)
[4] = biological target: AURKA (human) (UniProt O14965)
[5] = biological target: CDK16 (human) (UniProt Q00536)
Chain of CDK16 (human) (Q00536 whole entry, looked up): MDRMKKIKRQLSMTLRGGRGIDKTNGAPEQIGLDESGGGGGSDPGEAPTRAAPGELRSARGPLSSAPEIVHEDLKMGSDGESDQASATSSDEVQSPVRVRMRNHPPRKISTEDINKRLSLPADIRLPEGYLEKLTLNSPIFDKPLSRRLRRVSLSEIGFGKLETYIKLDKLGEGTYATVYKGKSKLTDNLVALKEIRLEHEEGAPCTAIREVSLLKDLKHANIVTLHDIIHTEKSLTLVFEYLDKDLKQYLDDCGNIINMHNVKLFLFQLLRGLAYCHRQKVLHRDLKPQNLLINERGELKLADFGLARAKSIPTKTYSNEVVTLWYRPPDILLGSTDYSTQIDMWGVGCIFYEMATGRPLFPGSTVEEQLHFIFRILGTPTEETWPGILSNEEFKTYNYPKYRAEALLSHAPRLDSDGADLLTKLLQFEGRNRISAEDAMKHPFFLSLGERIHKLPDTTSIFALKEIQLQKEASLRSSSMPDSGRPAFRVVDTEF

[6] = biological target: WEE2 (human) (UniProt P0C1S8)
[7] = biological target: MUSK (human) (UniProt O15146)
Chain of MUSK (human) (O15146 whole entry, looked up): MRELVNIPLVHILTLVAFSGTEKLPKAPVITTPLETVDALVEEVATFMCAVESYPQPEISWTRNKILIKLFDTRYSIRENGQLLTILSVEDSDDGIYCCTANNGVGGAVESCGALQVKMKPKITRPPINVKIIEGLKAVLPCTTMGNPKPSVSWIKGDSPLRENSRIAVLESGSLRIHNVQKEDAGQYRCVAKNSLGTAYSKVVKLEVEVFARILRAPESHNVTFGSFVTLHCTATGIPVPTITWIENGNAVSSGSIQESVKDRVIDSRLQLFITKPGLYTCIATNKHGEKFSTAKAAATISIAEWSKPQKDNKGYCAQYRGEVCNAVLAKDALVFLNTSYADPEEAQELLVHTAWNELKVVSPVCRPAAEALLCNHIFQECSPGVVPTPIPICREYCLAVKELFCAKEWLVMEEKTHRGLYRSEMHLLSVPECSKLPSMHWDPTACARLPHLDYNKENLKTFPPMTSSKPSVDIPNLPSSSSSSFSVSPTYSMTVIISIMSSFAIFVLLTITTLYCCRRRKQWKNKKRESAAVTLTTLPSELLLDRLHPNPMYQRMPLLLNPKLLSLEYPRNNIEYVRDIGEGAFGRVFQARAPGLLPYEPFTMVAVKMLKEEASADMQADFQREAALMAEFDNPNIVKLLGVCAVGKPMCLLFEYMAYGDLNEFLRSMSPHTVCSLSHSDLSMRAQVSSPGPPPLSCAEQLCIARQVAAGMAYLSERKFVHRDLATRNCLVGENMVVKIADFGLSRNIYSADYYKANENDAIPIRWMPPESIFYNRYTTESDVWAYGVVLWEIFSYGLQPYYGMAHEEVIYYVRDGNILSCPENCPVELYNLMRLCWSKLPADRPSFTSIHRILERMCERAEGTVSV

[8] = biological target: PDPK1 (human) (UniProt O15530)
[9] = biological target: CLK1 (human) (UniProt P49759)
Chain of CLK1 (human) (P49759 whole entry, looked up): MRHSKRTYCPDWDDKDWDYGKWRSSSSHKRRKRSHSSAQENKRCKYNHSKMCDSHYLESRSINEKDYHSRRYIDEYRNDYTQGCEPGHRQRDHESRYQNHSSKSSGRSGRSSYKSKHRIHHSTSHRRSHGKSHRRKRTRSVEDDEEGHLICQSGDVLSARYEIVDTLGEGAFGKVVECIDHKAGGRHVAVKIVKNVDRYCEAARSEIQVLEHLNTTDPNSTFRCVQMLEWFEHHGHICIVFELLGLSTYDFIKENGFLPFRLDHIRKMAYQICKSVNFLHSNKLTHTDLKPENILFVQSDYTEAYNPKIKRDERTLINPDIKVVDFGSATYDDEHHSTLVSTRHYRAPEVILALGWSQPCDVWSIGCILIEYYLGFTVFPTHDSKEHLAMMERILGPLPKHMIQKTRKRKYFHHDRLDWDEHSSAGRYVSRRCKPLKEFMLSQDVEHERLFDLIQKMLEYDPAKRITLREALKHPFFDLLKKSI

[10] = biological target: PLK3 (human) (UniProt Q9H4B4)
Chain of PLK3 (human) (Q9H4B4 whole entry, looked up): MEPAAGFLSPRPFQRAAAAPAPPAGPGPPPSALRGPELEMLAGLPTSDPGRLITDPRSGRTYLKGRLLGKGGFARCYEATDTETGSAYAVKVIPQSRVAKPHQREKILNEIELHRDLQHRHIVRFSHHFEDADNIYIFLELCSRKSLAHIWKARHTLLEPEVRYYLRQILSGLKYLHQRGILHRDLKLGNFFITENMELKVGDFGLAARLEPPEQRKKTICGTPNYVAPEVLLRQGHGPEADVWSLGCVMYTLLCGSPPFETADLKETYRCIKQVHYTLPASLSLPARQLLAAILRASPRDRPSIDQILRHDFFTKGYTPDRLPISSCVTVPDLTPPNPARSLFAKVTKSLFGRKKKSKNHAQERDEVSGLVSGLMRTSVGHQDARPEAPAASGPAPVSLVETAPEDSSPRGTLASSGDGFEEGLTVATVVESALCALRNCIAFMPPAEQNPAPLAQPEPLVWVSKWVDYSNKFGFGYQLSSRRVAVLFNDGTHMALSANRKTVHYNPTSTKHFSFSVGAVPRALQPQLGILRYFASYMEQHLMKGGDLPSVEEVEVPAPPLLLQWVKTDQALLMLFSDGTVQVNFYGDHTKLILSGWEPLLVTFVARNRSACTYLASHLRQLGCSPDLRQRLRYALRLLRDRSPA

[11] = biological target: PRKD3 (human) (UniProt O94806)
[12] = biological target: CDK7 (human) (UniProt P50613)
[13] = biological target: RPS6KA1 KD2 (human) (UniProt Q15418)
[14] = biological target: STK16 (human) (UniProt O75716)
[15] = biological target: DDR2 (human) (UniProt Q16832)
[16] = biological target: ADCK4 (human) (UniProt Q96D53)
[17] = biological target: DCLK1 (human) (UniProt O15075)
[18] = biological target: ACVR1B (human) (UniProt P36896)
[19] = biological target: MAPK7 (human) (UniProt Q13164)
Chain of MAPK7 (human) (Q13164 whole entry, looked up): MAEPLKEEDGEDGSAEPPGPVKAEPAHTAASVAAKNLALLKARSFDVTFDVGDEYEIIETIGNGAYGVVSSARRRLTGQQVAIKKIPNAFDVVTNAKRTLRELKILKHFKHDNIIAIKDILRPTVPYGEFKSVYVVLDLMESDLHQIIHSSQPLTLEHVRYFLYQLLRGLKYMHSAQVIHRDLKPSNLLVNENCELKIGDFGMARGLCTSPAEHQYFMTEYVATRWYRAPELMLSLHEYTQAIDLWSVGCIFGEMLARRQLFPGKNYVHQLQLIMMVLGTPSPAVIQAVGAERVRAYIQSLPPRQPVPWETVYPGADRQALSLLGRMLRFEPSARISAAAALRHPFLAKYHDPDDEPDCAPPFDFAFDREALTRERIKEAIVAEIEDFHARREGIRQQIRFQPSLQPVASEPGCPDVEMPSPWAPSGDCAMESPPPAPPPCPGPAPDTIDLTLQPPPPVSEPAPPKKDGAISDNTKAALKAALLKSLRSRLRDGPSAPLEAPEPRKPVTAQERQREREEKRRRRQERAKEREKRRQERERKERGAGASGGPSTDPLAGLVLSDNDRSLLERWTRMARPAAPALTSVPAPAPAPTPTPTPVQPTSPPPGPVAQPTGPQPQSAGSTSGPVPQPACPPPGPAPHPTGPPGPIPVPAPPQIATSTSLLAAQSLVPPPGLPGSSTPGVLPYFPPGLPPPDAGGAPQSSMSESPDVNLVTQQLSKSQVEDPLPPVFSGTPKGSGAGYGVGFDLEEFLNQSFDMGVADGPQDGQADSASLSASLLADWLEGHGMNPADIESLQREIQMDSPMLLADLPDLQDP

[20] = biological target: FER (human) (UniProt P16591)
[21] = biological target: STK17A (human) (UniProt Q9UEE5)
Chain of STK17A (human) (Q9UEE5 whole entry, looked up): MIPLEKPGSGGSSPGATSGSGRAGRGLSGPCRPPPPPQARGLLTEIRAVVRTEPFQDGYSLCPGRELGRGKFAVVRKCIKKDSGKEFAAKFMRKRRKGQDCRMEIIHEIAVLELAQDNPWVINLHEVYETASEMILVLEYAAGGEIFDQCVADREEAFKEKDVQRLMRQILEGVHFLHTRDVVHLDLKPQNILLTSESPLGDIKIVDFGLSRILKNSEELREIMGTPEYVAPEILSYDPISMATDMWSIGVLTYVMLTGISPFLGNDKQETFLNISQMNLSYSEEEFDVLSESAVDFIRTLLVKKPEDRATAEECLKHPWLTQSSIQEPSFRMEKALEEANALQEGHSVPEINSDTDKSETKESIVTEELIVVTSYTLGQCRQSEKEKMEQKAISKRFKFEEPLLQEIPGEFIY

[22] = biological target: EPHA3 (human) (UniProt P29320)
[23] = biological target: PRKAA2 (human) (UniProt P54646)
[24] = biological target: FGFR2 (human) (UniProt P21802)
[25] = biological target: CLK3 (human) (UniProt P49761)
Chain of CLK3 (human) (P49761 whole entry, looked up): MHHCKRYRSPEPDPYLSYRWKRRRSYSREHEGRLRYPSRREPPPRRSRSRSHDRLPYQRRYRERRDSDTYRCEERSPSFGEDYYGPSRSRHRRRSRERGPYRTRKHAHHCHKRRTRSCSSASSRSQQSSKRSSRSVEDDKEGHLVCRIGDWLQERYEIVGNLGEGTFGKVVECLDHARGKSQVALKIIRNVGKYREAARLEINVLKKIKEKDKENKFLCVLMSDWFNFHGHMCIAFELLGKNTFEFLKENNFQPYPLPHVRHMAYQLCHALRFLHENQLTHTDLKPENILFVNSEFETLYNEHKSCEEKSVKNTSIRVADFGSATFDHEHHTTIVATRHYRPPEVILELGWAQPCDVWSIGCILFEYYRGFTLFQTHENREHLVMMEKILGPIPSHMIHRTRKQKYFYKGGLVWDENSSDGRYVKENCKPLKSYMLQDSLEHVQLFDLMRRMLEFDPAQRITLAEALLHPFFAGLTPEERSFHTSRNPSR

[26] = biological target: MAP4K2 (human) (UniProt Q12851)
[27] = biological target: PRKACB (human) (UniProt P22694)
[28] = biological target: TESK1 (human) (UniProt Q15569)
[29] = biological target: FLT4 (human) (UniProt P35916)
[30] = biological target: ULK1 (human) (UniProt O75385)
[31] = biological target: SGK110 (human) (UniProt P0C264)
[32] = biological target: MKNK2 (human) (UniProt Q9HBH9)
[33] = biological target: TNNI3K (human) (UniProt Q59H18)
Chain of TNNI3K (human) (Q59H18 whole entry, looked up): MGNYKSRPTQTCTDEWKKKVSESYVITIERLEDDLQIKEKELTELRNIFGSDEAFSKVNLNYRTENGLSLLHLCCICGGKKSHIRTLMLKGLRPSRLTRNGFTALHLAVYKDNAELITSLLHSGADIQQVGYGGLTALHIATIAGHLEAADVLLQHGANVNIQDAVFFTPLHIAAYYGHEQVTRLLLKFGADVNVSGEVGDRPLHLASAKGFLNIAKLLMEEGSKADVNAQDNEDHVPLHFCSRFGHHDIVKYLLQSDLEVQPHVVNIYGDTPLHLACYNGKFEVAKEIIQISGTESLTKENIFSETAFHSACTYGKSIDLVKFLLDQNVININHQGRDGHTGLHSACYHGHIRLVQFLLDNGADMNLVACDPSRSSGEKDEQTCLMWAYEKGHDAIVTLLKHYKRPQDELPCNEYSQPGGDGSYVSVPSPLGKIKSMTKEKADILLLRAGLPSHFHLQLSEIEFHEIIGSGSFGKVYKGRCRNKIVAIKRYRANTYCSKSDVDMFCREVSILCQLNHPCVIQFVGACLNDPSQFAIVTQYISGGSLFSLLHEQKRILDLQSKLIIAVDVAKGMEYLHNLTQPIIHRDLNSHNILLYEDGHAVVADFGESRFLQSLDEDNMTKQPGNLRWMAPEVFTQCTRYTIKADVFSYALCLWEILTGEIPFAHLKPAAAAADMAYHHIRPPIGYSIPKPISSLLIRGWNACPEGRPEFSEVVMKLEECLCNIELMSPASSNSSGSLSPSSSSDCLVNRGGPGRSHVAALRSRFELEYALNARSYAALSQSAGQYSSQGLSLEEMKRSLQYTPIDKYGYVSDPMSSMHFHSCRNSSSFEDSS

[34] = biological target: EPHB1 (human) (UniProt P54762)
[35] = biological target: MST1R (human) (UniProt Q04912)
[36] = biological target: MAPK8 (human) (UniProt P45983)
[37] = tested on: KIT (human), P10721 [V559D]
[38] = biological target: SIK2 (human) (UniProt Q9H0K1)
[39] = biological target: CSNK1E (human) (UniProt P49674)
[40] = biological target: ULK2 (human) (UniProt Q8IYT8)

How did the kinase still bound, per cent of control [1] turn out when C[C@@H](Oc1cc(-n2cnc3ccc(CN4CCN(C)CC4)cc32)sc1C(N)=O)c1ccccc1C(F)(F)F was run?
Its kinase still bound, per cent of control is 74%.

What about the kinase still bound, per cent of control [2] of the same compound?
Its kinase still bound, per cent of control is 68%.

What about the kinase still bound, per cent of control [3] of the same compound?
The kinase still bound, per cent of control was 92%.

What about the kinase still bound, per cent of control [4] of the same compound?
Its kinase still bound, per cent of control is 100%.

And the kinase still bound, per cent of control [5]?
The kinase still bound, per cent of control was 100%.

And the kinase still bound, per cent of control [6]?
The kinase still bound, per cent of control was 83%.

What about the kinase still bound, per cent of control [7] of the same compound?
Its kinase still bound, per cent of control is 100%.

And the kinase still bound, per cent of control [8]?
The kinase still bound, per cent of control was 100%.

And the kinase still bound, per cent of control [9]?
The kinase still bound, per cent of control was 36%.

What about the kinase still bound, per cent of control [10] of the same compound?
The kinase still bound, per cent of control was 3.6%.

What about the kinase still bound, per cent of control [11] of the same compound?
The kinase still bound, per cent of control was 12%.

What about the kinase still bound, per cent of control [12] of the same compound?
Its kinase still bound, per cent of control is 33%.

And the kinase still bound, per cent of control [13]?
Its kinase still bound, per cent of control is 71%.

What about the kinase still bound, per cent of control [14] of the same compound?
The kinase still bound, per cent of control was 65%.

And the kinase still bound, per cent of control [15]?
The kinase still bound, per cent of control was 77%.

What about the kinase still bound, per cent of control [16] of the same compound?
Its kinase still bound, per cent of control is 58%.

And the kinase still bound, per cent of control [17]?
The kinase still bound, per cent of control was 40%.

And the kinase still bound, per cent of control [18]?
The kinase still bound, per cent of control was 97%.

What about the kinase still bound, per cent of control [19] of the same compound?
The kinase still bound, per cent of control was 91%.

And the kinase still bound, per cent of control [20]?
The kinase still bound, per cent of control was 100%.

What about the kinase still bound, per cent of control [21] of the same compound?
Its kinase still bound, per cent of control is 100%.

What about the kinase still bound, per cent of control [22] of the same compound?
Its kinase still bound, per cent of control is 100%.

What about the kinase still bound, per cent of control [23] of the same compound?
Its kinase still bound, per cent of control is 80%.

And the kinase still bound, per cent of control [24]?
The kinase still bound, per cent of control was 75%.

What about the kinase still bound, per cent of control [25] of the same compound?
Its kinase still bound, per cent of control is 91%.

What about the kinase still bound, per cent of control [26] of the same compound?
The kinase still bound, per cent of control was 24%.

What about the kinase still bound, per cent of control [27] of the same compound?
Its kinase still bound, per cent of control is 89%.

And the kinase still bound, per cent of control [28]?
The kinase still bound, per cent of control was 100%.

And the kinase still bound, per cent of control [29]?
The kinase still bound, per cent of control was 63%.

And the kinase still bound, per cent of control [30]?
The kinase still bound, per cent of control was 41%.

What about the kinase still bound, per cent of control [31] of the same compound?
Its kinase still bound, per cent of control is 100%.

What about the kinase still bound, per cent of control [32] of the same compound?
The kinase still bound, per cent of control was 23%.

What about the kinase still bound, per cent of control [33] of the same compound?
The kinase still bound, per cent of control was 92%.

And the kinase still bound, per cent of control [34]?
Its kinase still bound, per cent of control is 99%.

What about the kinase still bound, per cent of control [35] of the same compound?
Its kinase still bound, per cent of control is 100%.

What about the kinase still bound, per cent of control [36] of the same compound?
Its kinase still bound, per cent of control is 100%.

What about the kinase still bound, per cent of control [37] of the same compound?
The kinase still bound, per cent of control was 38%.

What about the kinase still bound, per cent of control [38] of the same compound?
The kinase still bound, per cent of control was 61%.

And the kinase still bound, per cent of control [39]?
Its kinase still bound, per cent of control is 100%.

Which results are given for Cc1cc([C@@H](C)Nc2ccccc2C(=O)O)c2nc(N3CCOCC3)cc(=O)n2c1?
kinase still bound, per cent of control [40]: 100%; kinase still bound, per cent of control [1]: 98%; kinase still bound, per cent of control [2]: 100%; kinase still bound, per cent of control [3]: 70%; kinase still bound, per cent of control [4]: 100%; kinase still bound, per cent of control [5]: 100%; kinase still bound, per cent of control [6]: 100%; kinase still bound, per cent of control [7]: 100%; kinase still bound, per cent of control [8]: 100%; kinase still bound, per cent of control [9]: 74%; kinase still bound, per cent of control [10]: 89%; kinase still bound, per cent of control [11]: 100%; kinase still bound, per cent of control [12]: 97%; kinase still bound, per cent of control [13]: 84%; kinase still bound, per cent of control [14]: 77%; kinase still bound, per cent of control [15]: 83%; kinase still bound, per cent of control [16]: 79%; kinase still bound, per cent of control [17]: 78%; kinase still bound, per cent of control [18]: 93%; kinase still bound, per cent of control [19]: 100%; kinase still bound, per cent of control [20]: 100%; kinase still bound, per cent of control [21]: 98%; kinase still bound, per cent of control [22]: 79%; kinase still bound, per cent of control [23]: 88%; kinase still bound, per cent of control [25]: 100%; kinase still bound, per cent of control [26]: 56%; kinase still bound, per cent of control [27]: 100%; kinase still bound, per cent of control [28]: 100%; kinase still bound, per cent of control [29]: 95%; kinase still bound, per cent of control [30]: 91%; kinase still bound, per cent of control [31]: 100%; kinase still bound, per cent of control [32]: 92%; kinase still bound, per cent of control [33]: 88%; kinase still bound, per cent of control [34]: 98%; kinase still bound, per cent of control [36]: 100%; kinase still bound, per cent of control [37]: 91%; kinase still bound, per cent of control [38]: 100%; kinase still bound, per cent of control [39]: 98%
